Experimental data taken from patent publication US7598421B2, “Materials for the delivery of biologically-active material to cells” (UCL Biomedica PLC, priority 2002, dated 2009).

How the values were obtained:
integrins = details: cited from earlier work; for affinity and specificity for integrins: literature
[1] = test system: Human airway epithelial cells; test: Transfection efficiency, luciferase assay in HAE cells (Example 19); type: cell-based; parameters: scale not given here; details: peptide:DNA 4:1, peptide [K]16 GACRRETAWACG
Experimental: The activity of various compositions of the invention was measured in HAE cells using a Luciferase assay. RLU/mg refers to relative light units per mg of protein. The assay was carried out as follows:
Lipid (10 mg/mL; […] [1 mg of lipid]) in chloroform was placed into a glass vial (sterile). The solvents were removed in vacuo and further traces of chloroform were removed on the high vacuum for 24 h. Cationic lipids were either formulated alone or with DOPE (mole ratio, 1:1).
Deionized water (1 mL; MilliQ) was added to the film, to generate […] solution of lipid in water. The mixture was allowed to hydrate at 4° C. for 24 h. After warming to 40° C. the mixture was sonicated to generate a clear solution (5 in approx). The resulting liposome formulations were stable for up to 3 months.
The components of the complex were mixed in the required weight ratio. The lipid was initially mixed with the peptide and the resulting mixture was added to the plasmid DNA.
Human airway epithelial cells were seeded for 24 h at 37 °C in complete growth medium in a […]. Transfection complexes were left to aggregate for 30 min and diluted to a concentration of 1 μg of DNA per 0.5 ml in OptiMEM (Life technologies). The medium was removed from each well and replaced with 0.5 ml of transfection complex and was allow to incubate for a further 4 h. The transfection complexes were removed and then replace with growth medium and the cells were allowed to incubate for 48 h.
The transfected cells were washed with phosphate-buffered saline (PBS). Reporter lysis buffer (100 μl) (Promega) was added to each well and cooled to 4 °C for 15 min. The cells were then assayed with a luciferase assay kit. The total light emission was measured for each well for 60 sec. The protein concentration of each sample was determined using a protein assay reagent and the activity expressed as relative light units per milligram of protein (RLU/mg).
The values obtained for the lipids produced in Examples 17 and 18 above and for Lipofectin were measured at 1:1 and 2:1 ratios of lipid:DNA, and in each case the ratio of peptide:DNA was 4:1, the peptide used being [K]16 GACRRETAWACG. The ratios are expressed in terms of weight. The testing procedure used was that outlined in Human Gene Therapy 9, 575-585, 1998.

Row | Compound | affinity and specificity for integrins (integrins) | integrin specificity (integrins; table of peptides) | luciferase activity, relative light units per mg of protein ([1]; 1:1 lipid:DNA by weight) [RLU/mg] | luciferase activity, relative light units per mg of protein ([1]; 2:1 lipid:DNA by weight) [RLU/mg]
1 | GACRRETAWACG [Peptide 6] | 51-specific | – | – | –
2 | GACDCRGDCFCA [Peptide 5] | high affinity for integrin v but is not v-specific | Peptide 5 (αv) | – | –
3 | GACRGDMFGCA [Peptide 1] | affinity for 5 and av integrins but is non-specific | – | – | –
4 | CCCCCCCC/C=C\CCCCCCCCOC(C[N+](C)(C)C)C(C[N+](C)(C)C)OCCCCCCCC/C=C\CCCCCCCC (centres unmarked) [Example 18, 1,4-Di(trimethylammonium)-2,3-dioleyloxy-butane; diiodide] | – | – | 43.2 | 373.3
5 | CCCCCCCC/C=C\CCCCCCCC(=O)OC(C[N+](C)(C)C)C(C[N+](C)(C)C)OC(=O)CCCCCCC/C=C\CCCCCCCC.[I-].[I-] (centres unmarked) [Example 17, 1,4-Di(trimethylammonium)-2,3-dioleoyloxy-butane; diiodide] | – | – | 1.2 | 2.0
